Ki data for 24 molecules are collected here from patent publication US20120214802A1, “PYRROLIDINE COMPOUNDS WHICH INHIBIT BETA-SECRETASE ACTIVITY AND METHODS OF USE THEREOF” (priority 2009, published 2012).

Sequence of memapsin 2 (P56817 46-501): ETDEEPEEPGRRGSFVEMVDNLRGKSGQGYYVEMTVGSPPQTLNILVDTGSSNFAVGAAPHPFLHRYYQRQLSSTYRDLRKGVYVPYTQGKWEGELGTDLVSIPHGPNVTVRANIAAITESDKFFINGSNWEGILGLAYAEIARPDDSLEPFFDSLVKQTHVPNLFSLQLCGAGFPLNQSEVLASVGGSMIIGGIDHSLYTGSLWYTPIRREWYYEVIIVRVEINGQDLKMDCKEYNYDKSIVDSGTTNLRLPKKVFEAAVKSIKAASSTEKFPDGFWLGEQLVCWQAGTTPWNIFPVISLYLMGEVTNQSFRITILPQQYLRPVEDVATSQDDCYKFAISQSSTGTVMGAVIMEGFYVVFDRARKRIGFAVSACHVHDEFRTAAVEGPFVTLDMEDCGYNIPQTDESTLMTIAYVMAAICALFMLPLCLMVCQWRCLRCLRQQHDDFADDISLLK

The experiment has as its target memapsin 2 (Homo sapiens, UniProt P56817). Nature of the experiment: Inhibition of memapsin 2 beta-secretase activity (fluorogenic substrate FS-2). Type of experiment: biochemical. Conditions: pH 4, 37° C., read-out: M2 Ki. The procedure:
Potency of compounds were determined by measurement of their inhibition of memapsin 2 activity toward a fluorescent substrate. Kinetic inhibition experiments were performed using the procedure as described in Ermolieff, et al. (Biochemistry 39:12450-12456 (2000), the teachings of which are incorporated hereby in their entirety). Briefly, assays were performed at pH 4, 37° C., by pre-incubation of memapsin 2 enzyme with compound for 20 minutes. Activity measurements were initiated by addition of a fluorogenic substrate FS-2 (Bachem Americas, Torrance, Calif.) MCA-SEVNLDAEFR-DNP (SEQ ID NO.: 2). The substrate was derived from 10 amino acids of the human amyloid precursor protein (APP), with the Swedish variant amino acids at the beta-secretase cleavage site. The terminal amino acid was modified from arginine to lysine to facilitate derivatization with a functional group for detection by autofluorescence. The amino acid sequence of the “core” peptide of the substrate is SEVNLDAEFK (SEQ ID NO.: 3). The amino terminus was derivatized with (7-methoxycoumarin-4-yl)acetyl (MCA), and the epsilon amine of the lysine side chain of the terminal residue (K in sequence SEVNLDAEFK (SEQ ID NO.: 3)) was derivatized with 2,4-dinitorphenyl (DNP).
`Cc1csc([C@H]2CCCN2C(=O)c2cc(C(=O)N[C@@H](Cc3ccccc3)[C@H](O)[C@H]3CC[C@@H](C)N3)cc(-n3cccc3)c2)n1` [1-58, N-((1R,2S)-1-hydroxy-1-((2R,5R)-5-methylpyrrolidin-2-yl)-3-phenylpropan-2-yl)-3-((R)-2-(4-methylthiazol-2-yl)pyrrolidine-1-carbonyl)-5-(1H-pyrrol-1-yl)benzamide]: the inhibition constant (Ki) (commonly the equilibrium dissociation constant of an inhibitor or competing ligand from its target) was 250 to 750 nM.

Regarding `Cc1csc([C@H]2CCCN2C(=O)c2cccc(C(=O)N[C@@H](Cc3ccccc3)[C@H](O)[C@@H]3NCCC3(F)F)c2)n1` [1-57, N-((1S,2S)-1-((S)-3,3-difluoropyrrolidin-2-yl)-1-hydroxy-3-phenylpropan-2-yl)-3-((R)-2-(4-methylthiazol-2-yl)pyrrolidine-1-carbonyl)benzamide], the Ki was less than 250 nM.

`Cc1csc([C@H]2CCCN2C(=O)c2cc(C(=O)N[C@@H](Cc3ccccc3)[C@H](O)[C@H]3C[C@H](F)CN3)cc(-n3cccc3)c2)n1` [1-59, N-((1R,2S)-1-((2R,4S)-4-fluoropyrrolidin-2-yl)-1-hydroxy-3-phenylpropan-2-yl)-3-((R)-2-(4-methylthiazol-2-yl)pyrrolidine-1-carbonyl)-5-(1H-pyrrol-1-yl)benzamide]: the Ki is less than 250 nM.

On to `Cc1csc([C@H]2CCCN2C(=O)c2cccc(C(=O)N[C@@H](Cc3ccccc3)[C@H](O)[C@@H]3CC[C@H](c4ccccc4)N3)c2)n1` [1-31, N-((1R,2S)-1-hydroxy-3-phenyl-1-((2S,5R)-5-phenylpyrrolidin-2-yl)propan-2-yl)-3-((R)-2-(4-methylthiazol-2-yl)pyrrolidine-1-carbonyl)benzamide], for which the inhibition constant (Ki) is greater than 750 nM.

Take `O=C(N[C@@H](Cc1ccccc1)[C@H](O)[C@H]1CCCN1)c1cccc(CN2CCCC2=O)c1` [2-13, N-((1R,2S)-1-hydroxy-3-phenyl-1-((R)-pyrrolidin-2-yl)propan-2-yl)-3-((2-oxopyrrolidin-1-yl)methyl)benzamide, reference compound]: the inhibition constant Ki is greater than 750 nM.

As for `Cc1csc([C@H]2CCCN2C(=O)c2cc(Cl)cc(C(=O)N[C@@H](Cc3ccccc3)[C@H](O)[C@H]3CCCN3)c2)n1` [1-56, 3-chloro-N-((1R,2S)-1-hydroxy-3-phenyl-1-((R)-pyrrolidin-2-yl)propan-2-yl)-5-((R)-2-(4-methylthiazol-2-yl)pyrrolidine-1-carbonyl)benzamide], the inhibitory constant (Ki) was less than 250 nM.

For the molecule `Cc1csc([C@H]2CCCN2C(=O)c2cccc(C(=O)N[C@@H](Cc3ccccc3)[C@H](O)[C@H]3CCC(C)(C)N3)c2)n1` [1-67, N-((1R,2S)-1-((R)-5,5-dimethylpyrrolidin-2-yl)-1-hydroxy-3-phenylpropan-2-yl)-3-((R)-2-(4-methylthiazol-2-yl)pyrrolidine-1-carbonyl)benzamide], the Ki is greater than 750 nM.

For `Cc1csc(CN(C)C(=O)c2cccc(C(=O)N[C@@H](Cc3ccc(F)cc3)[C@H](O)[C@H]3CCCN3)c2)n1` [1-66, N1-((1R,2S)-3-(4-fluorophenyl)-1-hydroxy-1-((R)-pyrrolidin-2-yl)propan-2-yl)-N3-methyl-N3-((4-methylthiazol-2-yl)methyl)isophthalamide], the Ki is greater than 750 nM.

In the case of `Cc1csc([C@H]2CCCN2C(=O)c2cccc(C(=O)N[C@@H](Cc3ccc(F)cc3)[C@H](O)[C@H]3CCCN3)c2)n1` [1-65, N-((1R,2S)-3-(4-fluorophenyl)-1-hydroxy-1-((R)-pyrrolidin-2-yl)propan-2-yl)-3-((R)-2-(4-methylthiazol-2-yl)pyrrolidine-1-carbonyl)benzamide], the Ki was in the range of 250 to 750 nM.

`Cc1csc([C@H]2CCCN2C(=O)c2cc(C(=O)N[C@@H](Cc3ccccc3)[C@H](O)[C@H]3CCCN3)cc([N+](=O)[O-])c2)n1` [1-55, N-((1R,2S)-1-hydroxy-3-phenyl-1-((R)-pyrrolidin-2-yl)propan-2-yl)-3-((R)-2-(4-methylthiazol-2-yl)pyrrolidine-1-carbonyl)-5-nitrobenzamide]: the inhibition constant Ki was less than 250 nM.

Regarding `CO[C@H]1CN[C@@H]([C@H](O)[C@H](Cc2ccccc2)NC(=O)c2cccc(C(=O)N3CCC[C@@H]3c3nc(C)cs3)c2)C1` [1-82, N-((1S,2S)-1-hydroxy-1-((2R,4R)-4-methoxypyrrolidin-2-yl)-3-phenylpropan-2-yl)-3-((R)-2-(4-methylthiazol-2-yl)pyrrolidine-1-carbonyl)benzamide], the inhibition constant (Ki) is less than 250 nM.

Consider `Cc1csc([C@H]2CCCN2C(=O)c2cccc(C(=O)N[C@@H](Cc3ccccc3)[C@@H](O)[C@H]3CCCN3)c2)n1` [1-80, N-((1S,2S)-1-hydroxy-3-phenyl-1-((R)-pyrrolidin-2-yl)propan-2-yl)-3-((R)-2-(4-methylthiazol-2-yl)pyrrolidine-1-carbonyl)benzamide], for which the Ki was greater than 750 nM.

With `Cc1csc([C@H]2CCCN2C(=O)c2cc(C(=O)N[C@@H](Cc3cc(F)cc(F)c3)[C@H](O)[C@H]3CCCN3)cc(C3CC3)c2)n1` [1-62, 3-cyclopropyl-N-((1R,2S)-3-(3,5-difluorophenyl)-1-hydroxy-1-((R)-pyrrolidin-2-yl)propan-2-yl)-5-((R)-2-(4-methylthiazol-2-yl)pyrrolidine-1-carbonyl)benzamide], the Ki was less than 250 nM.

As for `Cc1csc(CN(C)C(=O)c2cccc(C(=O)N[C@@H](Cc3ccccc3)[C@H](O)[C@H]3C[C@H](F)CN3)c2)n1` [1-60, N1-((1R,2S)-1-((2R,4S)-4-fluoropyrrolidin-2-yl)-1-hydroxy-3-phenylpropan-2-yl)-N3-methyl-N3-((4-methylthiazol-2-yl)methyl)isophthalamide], the Ki is greater than 750 nM.

For `Cc1csc([C@H]2CCCN2C(=O)c2cc(C(=O)N[C@@H](Cc3ccccc3)[C@H](O)[C@H]3CCCN3)cc(-n3ccnc3)c2)n1` [1-77, N-((1R,2S)-1-hydroxy-3-phenyl-1-((R)-pyrrolidin-2-yl)propan-2-yl)-3-(1H-imidazol-1-yl)-5-((R)-2-(4-methylthiazol-2-yl)pyrrolidine-1-carbonyl)benzamide], the inhibition constant Ki is 250 to 750 nM.

As for `Cc1csc([C@H]2CCCN2C(=O)c2cc(C(=O)N[C@@H](Cc3cc(F)cc(F)c3)[C@H](O)[C@H]3CCCN3)cc(-c3cnccn3)c2)n1` [1-63, N-((1R,2S)-3-(3,5-difluorophenyl)-1-hydroxy-1-((R)-pyrrolidin-2-yl)propan-2-yl)-3-((R)-2-(4-methylthiazol-2-yl)pyrrolidine-1-carbonyl)-5-(pyrazin-2-yl)benzamide], the Ki is less than 250 nM.

For `Cc1csc([C@H]2CCCN2C(=O)c2cc(C(=O)N[C@@H](Cc3ccccc3)[C@H](O)[C@H]3CCCN3)cc(S(C)(=O)=O)c2)n1` [1-68, N-((1R,2S)-1-hydroxy-3-phenyl-1-((R)-pyrrolidin-2-yl)propan-2-yl)-3-(methylsulfonyl)-5-((R)-2-(4-methylthiazol-2-yl)pyrrolidine-1-carbonyl)benzamide], the Ki is less than 250 nM.

As for `Cc1csc(CN(C)C(=O)c2cc(C(=O)N[C@@H](Cc3ccccc3)[C@H](O)[C@H]3CCCN3)cc(-c3ccc(F)cc3F)c2)n1` [1-30, 2′,4′-difluoro-N3-((1R,2S)-1-hydroxy-3-phenyl-1-((R)-pyrrolidin-2-yl)propan-2-yl)-N5-methyl-N5-((4-methylthiazol-2-yl)methyl)biphenyl-3,5-dicarboxamide], the Ki is less than 250 nM.

Regarding `Cc1csc([C@H]2CCCN2C(=O)c2cc(C(=O)N[C@@H](Cc3ccccc3)[C@H](O)[C@H]3CCCN3)cc(C(F)(F)F)c2)n1` [1-72, N-((1R,2S)-1-hydroxy-3-phenyl-1-((R)-pyrrolidin-2-yl)propan-2-yl)-3-((R)-2-(4-methylthiazol-2-yl)pyrrolidine-1-carbonyl)-5-(trifluoromethyl)benzamide], the Ki is less than 250 nM.

On to `Cc1coc([C@H]2CCCN2C(=O)c2cccc(C(=O)N[C@@H](Cc3ccccc3)[C@H](O)[C@H]3CCCN3C(=O)OC(C)(C)C)c2)n1` [1-3, (R)-tert-butyl 2-((1S,2S)-1-hydroxy-2-(3-((R)-2-(4-methyloxazol-2-yl)pyrrolidine-1-carbonyl)benzamido)-3-phenylpropyl)pyrrolidine-1-carboxylate], for which the Ki is greater than 750 nM.

Take `Cc1csc([C@H]2CCCN2C(=O)c2cccc(C(=O)N[C@@H](Cc3ccccc3)[C@H](O)[C@H]3CC[C@@H](c4ccccc4)N3)c2)n1` [1-29, N-((1R,2S)-1-hydroxy-3-phenyl-1-((2R,5S)-5-phenylpyrrolidin-2-yl)propan-2-yl)-3-((R)-2-(4-methylthiazol-2-yl)pyrrolidine-1-carbonyl)benzamide]: the Ki is greater than 750 nM.

As to `CCCN(CCC)C(=O)c1cccc(C(=O)N[C@@H](Cc2ccccc2)[C@H](O)[C@H]2CCCN2)c1` [2-12, N1-((1R,2S)-1-hydroxy-3-phenyl-1-((R)-pyrrolidin-2-yl)propan-2-yl)-N3,N3-dipropylisophthalamide, reference compound], the Ki is greater than 750 nM.

For the molecule `Cc1csc(CN(C)C(=O)c2cccc(C(=O)N[C@@H](Cc3cccc(F)c3)[C@H](O)[C@H]3CCCN3)c2)n1` [1-54, N1-((1R,2S)-3-(3-fluorophenyl)-1-hydroxy-1-((R)-pyrrolidin-2-yl)propan-2-yl)-N3-methyl-N3-((4-methylthiazol-2-yl)methyl)isophthalamide], the inhibitory constant (Ki) is 250 to 750 nM.

Regarding `CO[C@H]1CN[C@@H]([C@@H](O)[C@H](Cc2ccccc2)NC(=O)c2cc(C(=O)N3CCC[C@@H]3c3nc(C)cs3)cc(-c3ncco3)c2)C1` [1-81, N-((1R,2S)-1-hydroxy-1-((2R,4R)-4-methoxypyrrolidin-2-yl)-3-phenylpropan-2-yl)-3-((R)-2-(4-methylthiazol-2-yl)pyrrolidine-1-carbonyl)-5-(oxazol-2-yl)benzamide], the inhibition constant (Ki) was less than 250 nM.
